Measured values from patent US8426447B2, “Spiro-tricyclic ring compounds as beta-secretase modulators and methods of use” (Amgen Inc., priority 2008, dated 2013).

How the values were obtained:
[1] = target: T1, BACE1 (Homo sapiens, UniProt P56817); assay: In Vitro Enzymatic BACE FRET (Fluorescence Resonance Energy Transfer) Assay; type: biochemical
Procedure, shortened: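 Run in 0.05 M acetate pH 4.2 with 10% DMSO final and 100 uM genapol detergent below its CMC. Reaction was started with 50 nM FRET peptide substrate (fluorophore and quencher flanking the BACE cleavage site), incubated one hour, stopped with Tris to neutral pH, and fluorescence read.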

[2] = target: T1, BACE1; assay: In Vitro BACE Cell-based Assay (HEK cell assay): Aβ40 in conditioned medium of cells stably expressing Amyloid Precursor Protein, sandwich ELISA
Procedure, shortened: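 First, APP-stable cells grow 24 h at 37° C., 5% CO2. Next, test compounds are added for 24 h (10 doses, 0.1% DMSO). Finally, medium Aβ40 is determined by pAb40/6E10 sandwich ELISA with Europium TRF, and IC50 is calculated.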

[3] = in vitro BACE FRET enzyme assay, IC50 class symbols, read-out: BACE1 FRET assay
[4] = HEK cell-based assay, Aβ40 in conditioned medium, IC50 class symbols, read-out: HEK cell assay
[5] = Table III, IC50's in uM ranges, read-out: BACE1 FRET assay
[6] = Table III, IC50's in uM ranges, read-out: HEK cell assay
[7] = Table IV, class symbols, read-out: BACE1 FRET assay
[8] = Table IV, class symbols, read-out: HEK cell assay
[9] = Table II, read-out: BACE1 FRET assay
[10] = Table II, Aβ40, 24 h incubation, read-out: HEK cell assay
[11] = HEK cells, read-out: HEK cell assay

T1 sequence (P56817 46-501, species assumed): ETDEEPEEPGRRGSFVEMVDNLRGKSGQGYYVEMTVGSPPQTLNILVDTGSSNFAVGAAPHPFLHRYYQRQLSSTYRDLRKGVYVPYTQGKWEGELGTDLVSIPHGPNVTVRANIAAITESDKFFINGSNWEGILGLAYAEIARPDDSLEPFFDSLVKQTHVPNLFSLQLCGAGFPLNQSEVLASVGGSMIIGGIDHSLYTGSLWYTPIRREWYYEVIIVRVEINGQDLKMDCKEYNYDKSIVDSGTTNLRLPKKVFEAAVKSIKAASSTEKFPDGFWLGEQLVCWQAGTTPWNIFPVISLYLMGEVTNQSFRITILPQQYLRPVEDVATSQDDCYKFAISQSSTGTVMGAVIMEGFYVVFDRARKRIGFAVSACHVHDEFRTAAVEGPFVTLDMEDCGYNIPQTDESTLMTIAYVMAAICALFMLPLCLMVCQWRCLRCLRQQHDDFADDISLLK

CC1(COc2cnc3c(c2)[C@]2(COC(N)=N2)c2cc(-c4cccc(F)c4F)ccc2O3)COC1 [compound 413]
IC50 [1, 3]: < 0.1 µM
IC50 [2, 4]: < 0.1 µM

NC1=N[C@@]2(CO1)c1cc(-c3cccnc3)ccc1Oc1cnc(C3=CCCCO3)cc12 [compound 729]
IC50 ([1]; read-out: BACE1 FRET assay): < 0.1 µM
IC50 ([2]; read-out: HEK cell assay): < 0.1 µM

CC1(COc2ccc3c(c2)[C@]2(COC(N)=N2)c2cc(C#CC4CC4)ccc2O3)COC1 [compound 197]
IC50 [1, 5]: < 0.1 µM
IC50 [2, 6]: < 0.1 µM

Cn1cc(-c2ccc3c(c2)[C@]2(COC(N)=N2)c2cc(-c4cccnc4)ccc2O3)cn1 [compound 710]
IC50 ([1]; read-out: BACE1 FRET assay): < 0.1 µM
IC50 ([2]; read-out: HEK cell assay): < 0.1 µM

NC1=N[C@@]2(CO1)c1cc(C#CC3CC3)ccc1Oc1ccc(Oc3ccccn3)cc12 [compound 211]
IC50 [1, 5]: 0.1 to 1 µM
IC50 [2, 6]: 1 to 5 µM

NC1=N[C@@]2(CO1)c1cc(-c3cccnc3F)ccc1Oc1cnc(C3=CCCCO3)cc12 [compound 371]
IC50 ([1]; BACE1 FRET assay (uM)): < 0.1 µM
IC50 ([2]; HEK cell assay (uM)): < 0.1 µM

COc1ccc2c(c1)[C@]1(COC(N)=N1)c1cc(C#CC(C)(C)C)cnc1O2 [compound 904]
IC50 [1, 7]: > 5 µM
IC50 [2, 8]: 0.1 to 1 µM

COc1ccc2c(c1)[C@]1(COC(N)=N1)c1cc(NC(=O)c3ccc(Cl)cn3)ccc1O2 [compound 652, N-((4S)-2-amino-7′-methoxyspiro[1,3-oxazole-4,9′-xanthen]-2′-yl)-5-chloro-2-pyridinecarboxamide]
IC50 [1, 7]: < 0.1 µM
IC50 [2, 8]: 0.1 to 1 µM

Cn1cc(-c2ccc3c(c2)[C@]2(COC(N)=N2)c2cc(Br)ccc2O3)cn1 [compound 638]
IC50 [1, 7]: 0.1 to 1 µM
IC50 [2, 8]: 1 to 5 µM

COC(C)(C)C#Cc1ccc2c(c1)[C@]1(COC(N)=N1)c1cc(-c3cccnc3)ccc1O2 [compound 201]
IC50 [1, 5]: < 0.1 µM
IC50 [2, 6]: < 0.1 µM

NC1=N[C@]2(CO1)c1cc(-c3cccnc3)ccc1Oc1cnc(-c3cccnc3)cc12 [compound 954]
IC50 ([1]; read-out: BACE1 FRET assay): < 0.1 µM
IC50 ([2]; read-out: HEK cell assay): 0.1 to 1 µM

CC(C)(O)Cc1ccc2c(c1)[C@]1(COC(N)=N1)c1cc(-c3cccnc3)ccc1O2 [compound 659]
IC50 [1, 7]: 0.1 to 1 µM
IC50 [2, 8]: 0.1 to 1 µM

CC(C)(C)CC(=O)c1ccc2c(c1)[C@]1(COC(N)=N1)c1cc(-c3ccc(F)nc3)ccc1O2 [150a]
IC50 [1, 5]: < 0.1 µM
IC50 [2, 6]: 0.1 to 1 µM

CC(C)(C)COc1ccc2c(n1)[C@]1(COC(N)=N1)c1cc(-c3cncnc3)ccc1O2 [compound 733]
IC50 ([1]; read-out: BACE1 FRET assay): < 0.1 µM
IC50 ([2]; read-out: HEK cell assay): < 0.1 µM

CC(C)C[C@H]1CN(c2ccc3c(c2)[C@]2(COC(N)=N2)c2cc(-c4cccnc4)ccc2O3)CCO1 [compound 359]
IC50 [1, 3]: 0.1 to 1 µM
IC50 [2, 4]: 0.1 to 1 µM

Cc1c(OCC(C)(C)O)ccc2c1[C@]1(COC(N)=N1)c1cc(-c3cccnc3)ccc1O2 [compound 907]
IC50 [1, 7]: < 0.1 µM
IC50 [2, 8]: < 0.1 µM

CC(C)(C)COc1ccc2c(c1)[C@]1(COC(N)=N1)c1cc(C3CCCCO3)ccc1O2 (some centres unmarked) [compound 656]
IC50 [1, 7]: < 0.1 µM
IC50 [2, 8]: 0.1 to 1 µM

NC1=NC2(CO1)c1cnc(Cl)cc1Oc1ccc(-c3cccnc3)cc12 (centres unmarked) [compound 727]
IC50 ([1]; read-out: BACE1 FRET assay): 1 to 5 µM
IC50 ([2]; read-out: HEK cell assay): > 5 µM

NC1=N[C@@]2(CO1)c1cc(-c3cccnc3F)ccc1Oc1ccc([C@H]3CCCCO3)cc12 [compound 365]
IC50 [1, 3]: < 0.1 µM
IC50 [2, 4]: < 0.1 µM

CC(C)(C)COc1ccc2c(c1)[C@]1(COC(N)=N1)c1cc(-c3c[nH]cn3)ccc1O2 [compound 978]
IC50 ([1]; read-out: BACE1 FRET assay): 0.1 to 1 µM
IC50 ([2]; read-out: HEK cell assay): 1 to 5 µM

NC1=N[C@]2(CO1)c1cc(OC3COC3)ccc1Oc1ccc(-c3cccnc3)cc12 [compound 777]
IC50 ([1]; read-out: BACE1 FRET assay): 0.1 to 1 µM
IC50 ([2]; read-out: HEK cell assay): 0.1 to 1 µM

NC1=N[C@@]2(CO1)c1cc(-c3cccnc3)ccc1Oc1ccc(N3CCOCC3)cc12 [compound 764]
IC50 ([1]; read-out: BACE1 FRET assay): < 0.1 µM
IC50 ([2]; read-out: HEK cell assay): < 0.1 µM

CC(C)(C)COc1ccc2c(c1)[C@]1(COC(N)=N1)c1cc(-c3cc(Cl)ccc3F)cnc1O2 [Example 69, (5R)-3-(5-chloro-2-fluorophenyl)-7-(2,2-dimethylpropoxy)spiro[chromeno[2,3-b]pyridine-5,4′-[1,3]oxazol]-2′-amine]
IC50 [1, 9]: < 0.1 µM
IC50 [2, 10]: 1 to 5 µM

CC(=O)COc1ccc2c(c1)[C@@]1(COC(N)=N1)c1cc(-c3cccnc3)cnc1O2 [compound 864]
IC50 [1, 7]: 0.1 to 1 µM
IC50 [2, 8]: 0.1 to 1 µM

COc1ccc2c(c1)[C@]1(N=C(N)O[C@@H]1C)c1cc(-c3cncnc3)ccc1O2 (single isomer, unassigned) [Example 125c]
IC50 [1, 5]: > 5 µM
IC50 [2, 6]: > 5 µM

CC(C)(O)C#Cc1ccc2c(c1)[C@@]1(COC(N)=N1)c1cc(Br)cnc1O2 [compound 173]
IC50 [1, 5]: 1 to 5 µM
IC50 [2, 6]: > 5 µM

NC1=N[C@]2(CO1)c1cc(-c3cccnc3)ccc1Oc1cnc(Cl)cc12 [compound 955]
IC50 ([1]; read-out: BACE1 FRET assay): 1 to 5 µM
IC50 ([2]; read-out: HEK cell assay): > 5 µM

CN(C)C(=O)c1ccc2c(c1)[C@]1(COC(N)=N1)c1cc(OCC(C)(C)C)ccc1O2 [compound 799]
IC50 [1, 7]: 0.1 to 1 µM
IC50 [2, 8]: 0.1 to 1 µM

CC1(C)CC(=O)N(c2ccc3c(c2)[C@]2(COC(N)=N2)c2cc(-c4cccnc4)ccc2O3)C1 [compound 749]
IC50 ([1]; read-out: BACE1 FRET assay): < 0.1 µM
IC50 ([2]; read-out: HEK cell assay): < 0.1 µM

COc1ccc2c(c1)C1(COC(N)=N1)c1cc(-c3cccc(OC(F)(F)F)c3)ccc1O2 (centres unmarked) [Example 22, 2′-methoxy-7′-(3-(trifluoromethoxy)phenyl)spiro[1,3-oxazole-4,9′-xanthen]-2-amine]
IC50 ([1]; Table 1, read-out: BACE1 FRET assay): 1 to 5 µM
IC50 ([2]; Table 1, Aβ40, 24 h incubation, read-out: HEK cell assay): 1 to 5 µM

NC1=N[C@@]2(CO1)c1cc(-c3cccnc3)ccc1Oc1ccc(-c3nccs3)cc12 [compound 666]
IC50 ([1]; read-out: BACE1 FRET assay): < 0.1 µM
IC50 ([2]; read-out: HEK cell assay): < 0.1 µM

Cc1ccc(-c2ccc3c(c2)[C@]2(COC(N)=N2)c2cc(OCC(C)(C)C)ccc2O3)cn1 [compound 786]
IC50 ([1]; read-out: BACE1 FRET assay): 0.1 to 1 µM
IC50 ([2]; read-out: HEK cell assay): 0.1 to 1 µM

CC(C)(O)C#Cc1cnc2c(c1)[C@]1(COC(N)=N1)c1cc(-c3cncnc3)ccc1O2 [compound 823]
IC50 [1, 7]: < 0.1 µM
IC50 [2, 8]: < 0.1 µM

NC1=N[C@]2(CO1)c1cc(-c3ccc(O)cc3)ccc1Oc1ccc(-c3cncnc3)cc12 [compound 890]
IC50 [1, 7]: < 0.1 µM
IC50 [2, 8]: 0.1 to 1 µM

COc1ccc2c(c1)[C@@]1(COC(N)=N1)c1cc(NC(=O)c3ccc(Cl)cn3)ccc1O2 [Example 55, N-((4R)-2-amino-7′-methoxyspiro[1,3-oxazole-4,9′-xanthen]-2′-yl)-5-chloro-2-pyridinecarboxamide]
IC50 [1, 9]: < 0.1 µM
IC50 [2, 10]: 0.1 to 1 µM

NC1=N[C@@]2(CO1)c1cc(-c3cccnc3F)ccc1Oc1cnc(-c3cccnc3F)cc12 [compound 550]
IC50 [1, 7]: < 0.1 µM
IC50 [2, 8]: 0.1 to 1 µM

CC(C)C[C@@H]1CN(c2ccc3c(c2)[C@]2(COC(N)=N2)c2cc(-c4cncnc4)ccc2O3)CCO1 [compound 422]
IC50 ([1]; read-out: BACE1 FRET assay): 0.1 to 1 µM
IC50 [2, 11]: 0.1 to 1 µM

NC1=N[C@]2(CO1)c1ccccc1Oc1cc(F)c(-c3cccnc3)cc12 [compound 569]
IC50 [1, 7]: 0.1 to 1 µM
IC50 [2, 8]: 0.1 to 1 µM

CC(C)(C)C#Cc1cnc2c(c1)[C@]1(COC(N)=N1)c1cc(-c3cnccn3)ccc1O2 [compound 654]
IC50 [1, 7]: < 0.1 µM
IC50 [2, 8]: < 0.1 µM

CC(C)(C)COc1ccc2c(c1)[C@]1(COC(N)=N1)c1cc(-c3ccc(Br)nn3)ccc1O2 [compound 970]
IC50 ([1]; read-out: BACE1 FRET assay): 0.1 to 1 µM
IC50 ([2]; read-out: HEK cell assay): > 5 µM

CC(C)(C#N)COc1cnc2c(c1)[C@]1(COC(N)=N1)c1cc(-c3ccccc3F)ccc1O2 [compound 408]
IC50 [1, 3]: < 0.1 µM
IC50 [2, 4]: < 0.1 µM

CC(C)(C)COc1ccc2c(c1)C1(COC(N)=N1)c1cc(NC(=O)c3ccc(Cl)cn3)ccc1O2 (centres unmarked) [compound 522]
IC50 ([1]; read-out: BACE1 FRET assay): < 0.1 µM
IC50 [2, 11]: < 0.1 µM

NC1=N[C@@]2(CO1)c1cc(-c3cccnc3N3CCOCC3)ccc1Oc1ccc(N3CCOCC3)cc12 [compound 391]
IC50 [1, 3]: 0.1 to 1 µM
IC50 [2, 4]: 1 to 5 µM

COc1ccc2c(c1)[C@]1(COC(N)=N1)c1cc(OC)cnc1O2 [compound 541]
IC50 [1, 7]: > 5 µM
IC50 [2, 8]: 1 to 5 µM

COc1ccc(-c2ccc3c(c2)[C@@]2(COC(N)=N2)c2cc(C#CC(C)(C)OC)cnc2O3)cn1 [compound 767]
IC50 ([1]; read-out: BACE1 FRET assay): 0.1 to 1 µM
IC50 ([2]; read-out: HEK cell assay): 0.1 to 1 µM

NC1=N[C@]2(CO1)c1cc(-c3cccnc3)ccc1Oc1ncc(-c3cccnc3)cc12 [compound 157]
IC50 [1, 5]: < 0.1 µM
IC50 [2, 6]: < 0.1 µM

CC(C)(C)COc1cnc2c(c1)[C@]1(COC(N)=N1)c1cc(-c3cncc(F)c3)ccc1O2 [compound 389]
IC50 [1, 3]: < 0.1 µM
IC50 [2, 4]: < 0.1 µM

CC(C)(C)COc1ccc2c(c1)[C@@]1(COC(N)=N1)c1cc(-c3cc(Cl)ccc3F)cnc1O2 [Example 90, (5S)-3-(5-chloro-2-fluorophenyl)-7-(2,2-dimethylpropoxy)spiro[chromeno[2,3-b]pyridine-5,4′-[1,3]oxazol]-2′-amine]
IC50 [1, 9]: < 0.1 µM
IC50 [2, 10]: 1 to 5 µM

Cc1ccc(-c2ccc3c(c2)[C@@]2(COC(N)=N2)c2cc(OCC(C)(C)C)ccc2O3)cn1 [Example 80, (4S)-2′-(2,2-dimethylpropoxy)-7′-(6-methyl-3-pyridinyl)spiro[1,3-oxazole-4,9′-xanthen]-2-amine]
IC50 [1, 9]: 0.1 to 1 µM
IC50 [2, 10]: 1 to 5 µM

CC(C)(F)COc1cc2c(cc1F)Oc1ccc(-c3cncnc3)cc1[C@@]21COC(N)=N1 [compound 530]
IC50 ([1]; read-out: BACE1 FRET assay): < 0.1 µM
IC50 [2, 11]: < 0.1 µM

CC(C)(C)COc1ccc2c(c1)[C@@]1(COC(N)=N1)c1cc(-c3ccc(OCC(F)(F)F)nc3)cnc1O2 [compound 740]
IC50 ([1]; read-out: BACE1 FRET assay): < 0.1 µM
IC50 ([2]; read-out: HEK cell assay): < 0.1 µM

COc1ccc2c(c1)[C@]1(COC(N)=N1)c1cc(NC(=O)C3CCCO3)ccc1O2 (some centres unmarked) [compound 614]
IC50 [1, 7]: 0.1 to 1 µM
IC50 [2, 8]: 0.1 to 1 µM
